Article PMC8331687 (ACS chemical biology, 2020)

Target: T1, ObiH (Pseudomonas fluorescens, UniProt A0A1X9LWZ7)
T1 sequence (A0A1X9LWZ7 1-440): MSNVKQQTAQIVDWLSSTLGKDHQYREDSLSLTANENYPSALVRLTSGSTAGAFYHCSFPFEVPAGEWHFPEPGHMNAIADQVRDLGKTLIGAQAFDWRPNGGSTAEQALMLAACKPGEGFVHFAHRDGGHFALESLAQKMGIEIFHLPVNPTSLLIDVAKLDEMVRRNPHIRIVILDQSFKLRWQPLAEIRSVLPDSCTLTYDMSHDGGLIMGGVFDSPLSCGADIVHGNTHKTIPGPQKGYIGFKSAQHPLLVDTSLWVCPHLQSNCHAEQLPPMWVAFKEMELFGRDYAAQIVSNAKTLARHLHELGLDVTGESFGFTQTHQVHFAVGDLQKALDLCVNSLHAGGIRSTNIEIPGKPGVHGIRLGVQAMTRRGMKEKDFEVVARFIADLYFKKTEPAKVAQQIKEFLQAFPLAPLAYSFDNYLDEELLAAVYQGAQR
Experiment: UV-vis titration of quinonoid at […] nm
Type: binding

## CC=O [acetaldehyde]
  Kd: 430 ± 15 µM
